Columns and labels:
OIR mouse model = assay: Oxygen-induced retinopathy (OIR) mouse model; format: in vivo
Description: In this model, 7-day-old mouse pups with partially developed retinal vasculature were subjected to hyperoxia (75% oxygen) for 5 days, which stops retinal vessel growth and causes significant vaso-obliteration. On postnatal day 12, the pups were returned to room air, and by postnatal day 17, a florid compensatory retinal neovascularization occurred. This model of pathological neovascularization has been widely used as a substitute for proliferative diabetic retinopathy (DR).
To examine the effects of the aromatic-cationic peptides of the invention on prevention of OIR, OIR was induced in mouse pups and the mice were simultaneously administered an aromatic-cationic peptide (e.g., Phe-D-Arg-Phe-Lys-NH2 or D-Arg-2′,6′-Dmt-Lys-Phe-NH2) for approximately 6 weeks. The results are shown in FIG. 26 and indicate that treatment with D-Arg-2′,6′-Dmt-Lys-Phe-NH2 prevented the compensatory retinal neovascularization. As such, the aromatic-cationic peptides of the invention are useful in methods of preventing proliferative diabetic retinopathy in mammalian subjects.

[1] = tested on: STZ and HFD/STZ diabetic rats; assay: Inner blood-retinal barrier function (Evans blue extravasation) in diabetic SD rats; format: in vivo, Sprague-Dawley rat; details: compared to rats on a HFD not administered peptide
Method: FIGS. 10A and 10B are charts showing the integrity of the blood-retinal barrier of normal rats (NRC), diabetic rats, and diabetic rats treated with Phe-D-Arg-Phe-Lys-NH2 (SS-20) or D-Arg-2′,6′-Dmt-Lys-Phe-NH2(SS-31), as analyzed by Evans blue extravasation. (A) diabetes induced by STZ; (B) diabetes induced by HFD/STZ.
A rat model of diabetes was established by combination of 6-week HFD and low dose of STZ (30 mg/kg) injection or a single high dose of STZ (65 mg/kg) in SD rats. See generally, K. Srinivasan, B. Viswanad, Lydia Asrat, C. L. Kaul and P. Ramarao, Combination of high-fat diet-fed and low-dose streptozotocin-treated rat: A model for type 2 diabetes and pharmacological screening, Pharmacological Research, 52(4): 313-320, 2005. Rats of the same batch fed with normal chow (NRC) were used as a control.
The effect of the aromatic-cationic peptides on the inner blood-retinal barrier function in the SD rat model was investigated.

[2] = tested on: primary human retinal pigment epithelial (RPE) cells; assay: Apoptosis of RPE cells induced by tBHP; format: cell-based; details: 1 μM for 4 h + 250 μM tBHP for 24 h
Method: FIG. 34A: control group; (Q2+Q4)%=1.27±0.3%; FIG. 34B: 250 μM tBHP for 24 h group; (Q2+Q4)%=15.7±0.6%; FIG. 34C: 1 μM D-Arg-2′,6′-Dmt-Lys-Phe-NH2 for 4 h+250 μM tBHP for 24 h group; (Q2+Q4)%=8.4±0.8%. FIG. 34D is a chart comparing the fluorescence ratio for the different groups. *P<0.05 C vs. B. FIG. 35 is a chart showing the MDA level induced by tBHP in 3 groups of RPE cells. (*P<0.05).

GTM3 cells = assay: ROS production, sustained oxidative injury by H2O2, GTM3 cells; format: cell-based, human; details: then 200 μM H2O2 24 h
Method: The effects of D-Arg-2′,6′-Dmt-Lys-Phe-NH2 on sustained oxidative injury of GTM and HTM cells was examined. Cells were pre-treated with 10^−6, 10^−7, 10^−8M of D-Arg-2′,6′-Dmt-Lys-Phe-NH2 for 1 h, and then incubated with 200 μM H2O2 for 24 h to investigate the protective effect of D-Arg-2′,6′-Dmt-Lys-Phe-NH2 in sustained oxidative stress.

[3] = tested on: cytochrome c release in HRECs; assay: Cytochrome c release from mitochondria of HRECs (confocal microscopy, Western blot); format: cell-based, human; details: 30 mmol/L glucose; 24 h or 48 h
Description: Glucose (30 mmol/L) induced cytochrome c release from the mitochondria of HRECs. Fixed HRECs were immunolabeled with a cytochrome c antibody and a mitochondrial specific protein antibody (HSP60).

[4] = tested on: STZ diabetic rats with intraocular ischemia/reperfusion; assay: Efficacy Pharmacological Test 1: diabetic rats, intraocular ischemia/reperfusion, visual cell layer edema
[5] = tested on: trabecular meshwork cells from POAG patients (GTM); assay: LDH cytotoxicity assay, GTM cells; format: cell-based, human
Description: In this Example, the effects of the aromatic-cationic peptides of the invention were compared between trabecular meshwork cells from POAG patients (GTM) and trabecular meshwork cells from non-diseased individuals (HTM). Methods useful in the studies of the present invention have been described. See generally, He Y, Ge J, Tombran-Tink J., Mitochondrial defects and dysfunction in calcium regulation in glaucomatous trabecular meshwork cells. Invest Ophthalmol Vis Sci. 2008, 49(11):4912-22; He Y, Leung K W, Zhang Y H, Duan S, Zhong X F, Jiang R Z, Peng Z, Tombran-Tink J, Ge J. Mitochondrial complex I defect induces ROS release and degeneration in trabecular meshwork cells of POAG patients: protection by antioxidants. Invest Ophthalmol Vis Sci. 2008, 49(4):1447-58. […]
To assess whether D-Arg-2′,6′-Dmt-Lys-Phe-NH2 had cytotoxic effects of HTM or GTM cells, various concentrations of D-Arg-2′,6′-Dmt-Lys-Phe-NH2 were administered to cells and the cytotoxicity was measured using an LDH assay. […] The assay quantitatively measures the stable, cytosolic, lactate dehydrogenase (LDH) enzyme, which is released from damaged cells. The released LDH is measured with a coupled enzymatic reaction that results in the conversion of a tetrazolium salt (iodonitrotetrazolium (INT)) into a red color formazan by diaphorase. […] The LDH activity is determined as NADH oxidation or INT reduction over a defined time period.

D-Arg-2′,6′-Dmt-Lys-Phe-NH2
avascular area (OIR mouse model; OIR mouse model (FIG. 26)): reduced | compensatory retinal neovascularization (OIR mouse model; OIR mouse pups): prevented | inner blood-retinal barrier function [1]: improved | (Q2+Q4)% cell apoptosis [2]: 8.4±0.8% | ROS Production (GTM3 cells; 0.01 μM pre-treatment 1 h): 133.70 ± 3.24 % | ROS Production (GTM3 cells; 0.1 μM pre-treatment 1 h): 68.91 ± 8.62 % | ROS Production (GTM3 cells; 1 μM pre-treatment 1 h): 47.40 ± 1.81 % | translocation of cytochrome c between mitochondria and cytoplasm [3]: decrease | loss of nuclei in the inner retinal layer ([4]; compared to the diabetic control group): absent, or much diminished | edema of the visual cell layer after ischemia/reperfusion ([4]; diabetic groups, oral, parenteral or eye drops twice per day): no edema or very low levels of edema | cytotoxicity ([5]; 10^−4M): no cytotoxicity | viability (LDH assay) ([5]; various concentrations): does not affect the viability

From patent US20180296630A1, “METHODS AND COMPOSITIONS FOR PREVENTING OR TREATING OPHTHALMIC CONDITIONS” (Stealth BioTherapeutics Corp, priority 2012, published 2018)
